Source: patent publication US20090274675A1, “Migraine tonic” (priority 2008, published 2009)

What was measured:
[1] = system: women suffering from severe migraine; experiment: Intravenous magnesium in intra-partum and post-partum women with severe migraine; format: in vivo, human; details: intravenous injection
Protocol: Use of magnesium is useful to control this neuronal excitability, which is one factor that perpetuates migraine. […] In this invention the unit dosage of Magnesium Citrate to be used is 250 to 500 mg. per total formulation dosage.

migraine headache = details: several clinical trials in the U.S and Europe; cited from earlier work

Compound	effect on severe migraine [1]	improvement in migraine headache (migraine headache)
[Mg+2] [magnesium, Magnesium]	dramatic effect	
Cc1cc2nc3c(=O)[nH]c(=O)nc-3n(C[C@H](O)[C@H](O)[C@H](O)CO)c2cc1C [riboflavin, Riboflavin]		statistically significant
